The values below come from patent US4029780A, “3-Piperazinyl 1,2,4-benzothiadiazine 1,1-dioxide derivatives their compositions and method of use” (Dainippon Pharmaceutical Co., Ltd., priority 1974, dated 1977).

For data set [1] the following is noted: literature, cited from earlier work.
The conditions of data set [2]: literature; cited from earlier work.
The subject of data set [3] is Spontaneously hypertensive male rats. Put plainly: Antihypertensive activity in spontaneously hypertensive rats (oral, 10 successive days). As to conditions: for Fall in blood pressure / Blood pressure: 10 mg/kg/day p.o. The data set is classed as in vivo, rat. As for the experimental part:
Spontaneously hypertensive male rats [SHR, Jap. Circ. J. 27, 282-93 (1963)] being 18-23 weeks of age and having systolic blood pressure levels of 170-190 mmHg were used. The test compounds were each suspended in a 0.5% aqueous tragacanth solution and administered orally in a dose of 10 mg/kg/day by stomach tube to SHR once a day for 10 successive days. The blood pressure of conscious SHR was measured prior to dosing and 5 hours after administration. It was also measured once daily over a period of 7 days after the end of the treatment period. The measurement of the blood pressure was made by a plethysmographtail method [Jap. Circ. J. 27, 282-93 (1963)].

Data set [4] concerns Male Wistar rats. Put plainly: Effect on urine volume and electrolyte excretion. The data set is classed as in vivo, rat. As for the experimental part:
Male Wistar rats weighing 220 to 260 g were used. Each test compound was suspended in a solution of tragacanth dissolved in a concentration of 0.5% in a 0.9% saline solution so that the volume of the resulting suspension to be administered would be always 25 ml/Kg. The test compounds were administered orally by the stomach tube to the animals at the prescribed doses. The animals were then placed in a metabolic cage and the urine was collected over a period of 5 hours. The total amount of sodium, potassium and chloride excreted was determined by Auto-Analyzer, made by Technicon Instruments Corporation.

Data set [5] concerns Male Wistar rats. Put plainly: Effect on blood glucose (a), oral. To be noted: 300 mg/kg p.o.
Method: (a) Male Wistar rats weighing 190-210 g were used. Each test compound was suspended in a concentration of 150 mg/ml in a 0.5% aqueous tragacanth solution and orally administered at a dose of 300 mg/kg by the stomach tube.
Data set [6] concerns Male Wistar rats. Description: Effect on blood glucose (b), intraperitoneal. As to conditions: 300 mg/kg i.p.
Method: (b) Male Wistar rats weighing 260-285 g were used. […] 4 ml/kg of the above solution of each test compound was intraperitoneally administered to each animal. The blood samples were taken prior to dosing and 1, 3 and 6 hours after the administration and the plasma glucose levels were determined in a similar manner to that described in (a).
The mark [7] stands for this setting: day 0, 5 hours after administration.
[8] abbreviates: day 2, 5 hours after administration.
Where [9] appears, read: day 4, 5 hours after administration.
Setting [10] is: day 6, 5 hours after administration.
The mark [11] stands for this setting: day 8, 5 hours after administration.
The mark [12] stands for this setting: day 10, 24 hours after the final treatment.
[13] abbreviates: day 14, 120 hours after the final treatment.
Setting [14] is: 100 mg/kg p.o., urinary excretion over 5 hours.

Take `O=S1(=O)NC(N2CCOCC2)=Nc2cc(C(F)(F)F)ccc21` [3-morpholino-6-trifluoromethyl-2H-1,2,4-benzothiadiazine 1,1-dioxide]: in data set [1], the Antihypertensive activity result is “no antihypertensive activity”.

For the compound `NC1=Nc2cc(C(F)(F)F)ccc2S(=O)(=O)N1` [6-trifluoromethyl-3-amino-2H-1,2,4-benzothiadiazine 1,1-dioxide], the Antihypertensive activity result in data set [1] is on record as “substantially the same degree of antihypertensive activity as diazoxide”. For the same compound, the Antidiuretic activity result in data set [2] is “antidiuretic activity similar to that of diazoxide”.

With `COc1cc2c(cc1OC)S(=O)(=O)NC(N1CCN(C)CC1)=N2` [Compound 1, 6,7-Dimethoxy-3-(4-methyl-1-piperazinyl)-2H-1,2,4-benzothiadiazine 1,1-dioxide], the “Fall in blood pressure” value in data set [3] is listed as “did not cause any significant fall in blood pressure”. The Blood pressure stood at 188 mm Hg in data set [3] (setting [7]); 189 mm Hg in data set [3] (day 0, prior to dosing (0)); 186 mm Hg in data set [3] (setting [8]); 187 mm Hg in data set [3] (day 2, prior to dosing (0)); 184 mm Hg in data set [3] (setting [9]); 185 mm Hg in data set [3] (day 4, prior to dosing (0)). The Blood pressure was determined as 184 mm Hg in data set [3] (setting [10]); 187 mm Hg in data set [3] (day 6, prior to dosing (0)); 187 mm Hg in data set [3] (setting [11]); 189 mm Hg in data set [3] (day 8, prior to dosing (0)); 187 mm Hg in data set [3] (setting [12]); 188 mm Hg in data set [3] (setting [13]). In addition, the Antihypertensive activity result in data set [1] is “no antihypertensive activity”.

For the compound `O=S1(=O)NC(N2CCCCC2)=Nc2ccccc21` [Compound 2, 3-Piperidino-2H-1,2,4-benzothiadiazine 1,1-dioxide], the “Fall in blood pressure” value in data set [3] is reported as “did not cause any significant fall in blood pressure”. The Blood pressure in data set [3] (setting [7]) is recorded as 180 mm Hg; in data set [3] (day 0, prior to dosing (0)), 187 mm Hg; in data set [3] (setting [8]) it was 181 mm Hg; in data set [3] (day 2, prior to dosing (0)), 186 mm Hg; in data set [3] (setting [9]), 183 mm Hg; in data set [3] (day 4, prior to dosing (0)), 182 mm Hg. For the same compound, the Blood pressure in data set [3] (setting [10]) is listed as 186 mm Hg; in data set [3] (day 6, prior to dosing (0)), 186 mm Hg; in data set [3] (setting [11]), 183 mm Hg; in data set [3] (day 8, prior to dosing (0)), 186 mm Hg; in data set [3] (setting [12]) it was 184 mm Hg; in data set [3] (setting [13]), 182 mm Hg. Further, in data set [3] (oral), the “Antihypertensive activity in oral administration” value was “does not show antihypertensive activity”. Besides, the “Antihypertensive activity in intravenous administration” value in data set [1] (intravenous) is given as “slight antihypertensive activity”.

As for `NS(=O)(=O)c1cc2c(cc1Cl)NCNS2(=O)=O` [Compound 4, Hydrochlorothiazide], the Blood pressure in data set [3] (setting [7]) is listed as 168 mm Hg; in data set [3] (day 0, prior to dosing (0)), 172 mm Hg; in data set [3] (setting [8]), 152 mm Hg; in data set [3] (day 2, prior to dosing (0)), 163 mm Hg; in data set [3] (setting [9]), 150 mm Hg; in data set [3] (day 4, prior to dosing (0)), 158 mm Hg. Further, the Blood pressure in data set [3] (setting [10]) is 138 mm Hg; in data set [3] (day 6, prior to dosing (0)), 151 mm Hg; in data set [3] (setting [11]), 140 mm Hg; in data set [3] (day 8, prior to dosing (0)), 152 mm Hg; in data set [3] (setting [12]), 153 mm Hg; in data set [3] (setting [13]), 165 mm Hg. For the same compound, the “Change in Na+/K+” value in the data set on Male Wistar rats [4] (1 mg/kg p.o.) is “marked increase”. This compound gave a Cl- in the data set on Male Wistar rats [4] (1.0 mg/kg p.o., urinary excretion over 5 hours) of 1.38 mEq. The Blood glucose stood at 104 mg/dL with Male Wistar rats [5] (0 hr (prior to dosing)); 114 mg/dL in the data set with Male Wistar rats [5] (1 hr); 111 mg/dL in the data set on Male Wistar rats [5] (3 hr); 112 mg/dL in the data set with Male Wistar rats [5] (6 hr); 113 mg/dL in the data set with Male Wistar rats [5] (10 hr); 100 mg/dL with Male Wistar rats [6] (0 hr (prior to dosing)). In addition, the Blood glucose in the data set with Male Wistar rats [6] (1 hr) is 257 mg/dL; in the data set with Male Wistar rats [6] (3 hr) it was 220 mg/dL; with Male Wistar rats [6] (6 hr) it was 144 mg/dL.

Turning to `CN1CCN(C2=Nc3ccccc3S(=O)(=O)N2)CC1` [Compound B, 3-(4-methyl-1-piperazinyl)-2H-1,2,4-benzothiadiazine 1,1-dioxide], the Blood pressure in data set [3] (setting [7]) is reported as 167 mm Hg; in data set [3] (day 0, prior to dosing (0)) it was 169 mm Hg; in data set [3] (setting [8]) it was 161 mm Hg; in data set [3] (day 2, prior to dosing (0)), 167 mm Hg; in data set [3] (setting [9]) it was 154 mm Hg; in data set [3] (day 4, prior to dosing (0)), 159 mm Hg. The Blood pressure turned out to be 144 mm Hg in data set [3] (setting [10]); 160 mm Hg in data set [3] (day 6, prior to dosing (0)); 136 mm Hg in data set [3] (setting [11]); 149 mm Hg in data set [3] (day 8, prior to dosing (0)); 146 mm Hg in data set [3] (setting [12]); 166 mm Hg in data set [3] (setting [13]). Besides, the “Change in electrolyte excretion” value with Male Wistar rats [4] (100 mg/kg p.o.) is recorded as “no significant change”. The “Change in urine volume” value in the data set with Male Wistar rats [4] (100 mg/kg p.o.) is given as “no significant change”. The compound further gave a Urine volume in the data set with Male Wistar rats [4] (100 mg/kg p.o., 5 hours) of 3.06 mL. For the same compound, the Cl- in the data set on Male Wistar rats [4] (setting [14]) is 0.89 mEq. In addition, the “K+” value in the data set on Male Wistar rats [4] (setting [14]) came out at 0.48 mEq. Further, in the data set on Male Wistar rats [4] (setting [14]), the “Na+” value amounted to 0.64 mEq. The “Na+/K+” value in the data set on Male Wistar rats [4] (setting [14]) is 1.34. For the same compound, the Blood glucose with Male Wistar rats [5] (0 hr (prior to dosing)) was determined as 106 mg/dL; with Male Wistar rats [5] (1 hr), 107 mg/dL; in the data set on Male Wistar rats [5] (3 hr) it was 109 mg/dL; in the data set on Male Wistar rats [5] (6 hr), 104 mg/dL; in the data set on Male Wistar rats [5] (10 hr), 110 mg/dL; in the data set on Male Wistar rats [6] (0 hr (prior to dosing)) it was 100 mg/dL. The Blood glucose in the data set with Male Wistar rats [6] (1 hr) amounted to 111 mg/dL; with Male Wistar rats [6] (3 hr), 115 mg/dL; in the data set with Male Wistar rats [6] (6 hr), 125 mg/dL. Also, the “Effect on blood glucose level” value in the data set on Male Wistar rats [5] (rats) and with Male Wistar rats [6] (rats) was “substantially no effect” in each case.
